Assay results from ChEMBL document CHEMBL5058646 (2022).

Columns and labels:
[1] = target: Serine/threonine-protein kinase WNK1 (Homo sapiens) (UniProt Q9H4A3); assay: WNK1 SGC Tm panel (DSF); settings: Compound concentration 20.0 uM
[2] = target: T1, Zinc finger and BTB domain-containing protein 40 (Homo sapiens) (UniProt Q9NUA8); settings: SUD4, Compound concentration 1.0 uM
T1 sequence (whole entry): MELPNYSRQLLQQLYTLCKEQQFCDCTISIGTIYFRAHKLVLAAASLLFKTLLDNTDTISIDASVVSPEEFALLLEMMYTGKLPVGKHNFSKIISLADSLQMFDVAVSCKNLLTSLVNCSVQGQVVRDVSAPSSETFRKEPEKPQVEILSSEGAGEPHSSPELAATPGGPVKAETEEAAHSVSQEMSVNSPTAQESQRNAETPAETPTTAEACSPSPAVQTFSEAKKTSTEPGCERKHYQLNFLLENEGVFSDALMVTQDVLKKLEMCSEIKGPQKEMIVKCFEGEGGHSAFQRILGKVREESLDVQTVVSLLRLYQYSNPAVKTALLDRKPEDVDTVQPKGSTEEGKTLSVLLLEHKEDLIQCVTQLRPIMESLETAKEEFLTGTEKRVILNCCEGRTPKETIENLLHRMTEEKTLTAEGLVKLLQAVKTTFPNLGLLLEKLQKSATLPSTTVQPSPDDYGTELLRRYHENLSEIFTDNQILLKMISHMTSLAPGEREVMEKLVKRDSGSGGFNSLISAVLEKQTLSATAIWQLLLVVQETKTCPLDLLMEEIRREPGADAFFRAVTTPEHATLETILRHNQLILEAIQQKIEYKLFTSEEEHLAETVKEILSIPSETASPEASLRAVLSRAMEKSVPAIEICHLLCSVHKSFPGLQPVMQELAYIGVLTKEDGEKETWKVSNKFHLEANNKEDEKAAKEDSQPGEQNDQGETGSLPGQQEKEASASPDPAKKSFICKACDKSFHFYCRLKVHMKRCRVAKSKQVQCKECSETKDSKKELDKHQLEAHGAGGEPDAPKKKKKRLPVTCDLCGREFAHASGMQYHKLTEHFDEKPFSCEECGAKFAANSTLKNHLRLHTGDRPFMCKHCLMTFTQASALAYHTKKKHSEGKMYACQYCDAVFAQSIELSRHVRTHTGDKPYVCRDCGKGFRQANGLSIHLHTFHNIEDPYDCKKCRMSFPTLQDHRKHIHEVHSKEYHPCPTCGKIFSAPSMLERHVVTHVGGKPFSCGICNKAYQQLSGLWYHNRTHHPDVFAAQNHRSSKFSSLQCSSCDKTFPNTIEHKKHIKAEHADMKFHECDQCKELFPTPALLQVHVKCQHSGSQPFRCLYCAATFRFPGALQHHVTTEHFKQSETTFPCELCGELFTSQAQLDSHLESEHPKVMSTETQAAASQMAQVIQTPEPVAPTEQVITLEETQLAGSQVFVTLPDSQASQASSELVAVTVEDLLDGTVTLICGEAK

[3] = target: Zinc finger and BTB domain-containing protein 43 (Homo sapiens) (UniProt O43298); settings: SUD4, Compound concentration 1.0 uM
[4] = target: T2, Mu-type opioid receptor (Homo sapiens, UniProt P35372); settings: Compound concentration 10.0 uM
[5] = target: T2, Mu-type opioid receptor; assay: GPCRScan assay: inhibition of MOR; set-up: radioligand conc. used [nm] 1.0 – 2.0, parental cells stable HEK
[6] = target: Glycogen synthase kinase-3 beta (Homo sapiens) (UniProt P49841); assay: GSK3B SGC Tm panel (DSF); settings: Compound concentration 20.0 uM
[7] = target: Calcium/calmodulin-dependent protein kinase kinase 2 (Homo sapiens) (UniProt Q96RR4); assay: CAMKK2 SGC Tm panel (DSF); settings: Compound concentration 20.0 uM
[8] = target: Myoneurin (Homo sapiens) (UniProt Q9NPC7); settings: SUD4, Compound concentration 1.0 uM
[9] = GPCRScan assay: inhibition of GABA/PBR; set-up: species or system Rattus norvegicus; radioligand conc. used [nm] 0.3 – 2.0, parental cells brain tissue
[10] = target: Serine/threonine-protein kinase pim-1 (Homo sapiens) (UniProt P11309); assay: PIM1 SGC Tm panel (DSF); settings: Compound concentration 20.0 uM
[11] = target: Serine/threonine-protein kinase PAK 1 (Homo sapiens) (UniProt Q13153); assay: PAK1 SGC Tm panel (DSF); settings: Compound concentration 20.0 uM
[12] = target: Proto-oncogene tyrosine-protein kinase Src (Homo sapiens) (UniProt P12931); assay: SRC SGC Tm panel (DSF); settings: Compound concentration 20.0 uM
[13] = target: Bromodomain-containing protein 4 (Homo sapiens) (UniProt O60885); assay: BRD4 SGC Tm panel (DSF); settings: Compound concentration 20.0 uM
[14] = target: D(1A) dopamine receptor (Homo sapiens) (UniProt P21728); settings: Compound concentration 10.0 uM
[15] = target: Calcium/calmodulin-dependent protein kinase type II subunit beta (Homo sapiens) (UniProt Q13554); assay: CAMK2B SGC Tm panel (DSF); settings: Compound concentration 20.0 uM
[16] = target: D(4) dopamine receptor (Homo sapiens) (UniProt P21917); settings: Compound concentration 10.0 uM
[17] = target: T3, Zinc finger and BTB domain-containing protein 24 (Homo sapiens) (UniProt O43167); settings: SUD4, Compound concentration 1.0 uM
T3 sequence (whole entry): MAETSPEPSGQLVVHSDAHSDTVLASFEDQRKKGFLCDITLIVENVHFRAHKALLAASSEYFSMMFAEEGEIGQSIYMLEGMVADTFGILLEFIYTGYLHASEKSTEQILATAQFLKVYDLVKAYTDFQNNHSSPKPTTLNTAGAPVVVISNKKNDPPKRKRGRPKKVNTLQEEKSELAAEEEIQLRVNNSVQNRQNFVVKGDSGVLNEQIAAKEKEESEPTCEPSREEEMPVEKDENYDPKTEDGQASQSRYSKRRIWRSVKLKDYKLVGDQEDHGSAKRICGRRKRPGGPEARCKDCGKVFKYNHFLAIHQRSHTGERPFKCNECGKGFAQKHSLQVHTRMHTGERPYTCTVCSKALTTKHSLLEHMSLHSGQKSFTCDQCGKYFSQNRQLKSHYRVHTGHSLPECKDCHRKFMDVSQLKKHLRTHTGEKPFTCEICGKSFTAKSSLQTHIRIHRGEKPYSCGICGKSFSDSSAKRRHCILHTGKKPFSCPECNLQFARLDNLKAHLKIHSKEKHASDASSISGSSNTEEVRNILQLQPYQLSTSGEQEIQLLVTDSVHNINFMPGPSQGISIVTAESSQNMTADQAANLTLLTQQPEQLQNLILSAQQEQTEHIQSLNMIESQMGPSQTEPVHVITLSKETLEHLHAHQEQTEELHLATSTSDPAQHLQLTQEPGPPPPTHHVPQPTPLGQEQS

[18] = target: Bone morphogenetic protein receptor type-2 (Homo sapiens) (UniProt Q13873); assay: BMPR2 SGC Tm panel (DSF); settings: Compound concentration 20.0 uM
[19] = target: Peregrin (Homo sapiens) (UniProt P55201); assay: BRPF1 SGC Tm panel (DSF); settings: Compound concentration 20.0 uM
Peregrin (Homo sapiens), sequence (P55201 whole entry): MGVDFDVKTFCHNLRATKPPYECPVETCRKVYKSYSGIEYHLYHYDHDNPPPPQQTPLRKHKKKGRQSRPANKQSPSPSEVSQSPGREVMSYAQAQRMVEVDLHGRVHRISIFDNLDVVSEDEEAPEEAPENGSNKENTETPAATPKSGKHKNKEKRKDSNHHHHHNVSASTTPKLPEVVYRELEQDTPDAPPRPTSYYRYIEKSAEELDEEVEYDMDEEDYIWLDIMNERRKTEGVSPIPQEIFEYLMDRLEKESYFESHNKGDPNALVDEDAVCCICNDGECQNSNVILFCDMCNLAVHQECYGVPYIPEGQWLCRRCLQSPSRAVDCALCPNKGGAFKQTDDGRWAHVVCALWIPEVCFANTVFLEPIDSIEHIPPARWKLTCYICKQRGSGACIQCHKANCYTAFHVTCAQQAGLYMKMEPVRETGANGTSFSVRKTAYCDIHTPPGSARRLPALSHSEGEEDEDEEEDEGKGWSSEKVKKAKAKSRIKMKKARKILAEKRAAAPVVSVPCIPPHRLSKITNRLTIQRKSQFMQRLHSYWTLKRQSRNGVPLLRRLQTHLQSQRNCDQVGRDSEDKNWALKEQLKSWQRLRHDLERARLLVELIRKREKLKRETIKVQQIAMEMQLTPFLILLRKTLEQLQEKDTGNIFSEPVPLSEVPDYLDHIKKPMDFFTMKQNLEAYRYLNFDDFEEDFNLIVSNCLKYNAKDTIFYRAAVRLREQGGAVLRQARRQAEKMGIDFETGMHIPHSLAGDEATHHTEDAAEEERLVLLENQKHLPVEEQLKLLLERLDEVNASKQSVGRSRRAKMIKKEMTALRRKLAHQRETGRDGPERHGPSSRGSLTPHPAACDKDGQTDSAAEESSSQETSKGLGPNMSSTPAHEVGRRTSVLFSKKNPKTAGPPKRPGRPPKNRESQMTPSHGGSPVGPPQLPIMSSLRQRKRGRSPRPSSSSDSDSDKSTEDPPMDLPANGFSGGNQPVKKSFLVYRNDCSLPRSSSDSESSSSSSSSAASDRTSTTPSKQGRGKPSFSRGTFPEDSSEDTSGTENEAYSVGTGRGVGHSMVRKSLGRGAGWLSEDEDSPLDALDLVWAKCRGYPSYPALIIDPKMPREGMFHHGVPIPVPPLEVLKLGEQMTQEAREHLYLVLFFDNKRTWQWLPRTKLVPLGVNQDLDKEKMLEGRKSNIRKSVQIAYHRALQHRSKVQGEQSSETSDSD

T2 sequence (P35372 whole entry): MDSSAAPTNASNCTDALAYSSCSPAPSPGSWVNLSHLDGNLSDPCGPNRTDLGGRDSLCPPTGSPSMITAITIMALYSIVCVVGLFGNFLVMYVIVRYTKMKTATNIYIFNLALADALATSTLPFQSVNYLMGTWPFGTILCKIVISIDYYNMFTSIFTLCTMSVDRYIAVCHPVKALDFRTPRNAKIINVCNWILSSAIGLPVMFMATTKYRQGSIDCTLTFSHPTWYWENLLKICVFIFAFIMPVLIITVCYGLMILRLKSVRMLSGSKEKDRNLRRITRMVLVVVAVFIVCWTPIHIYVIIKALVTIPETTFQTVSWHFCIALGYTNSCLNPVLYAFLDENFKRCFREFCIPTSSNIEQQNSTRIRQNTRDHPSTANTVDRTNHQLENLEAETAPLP
Zinc finger and BTB domain-containing protein 43 (Homo sapiens), sequence (O43298 whole entry, the tested form may be a part): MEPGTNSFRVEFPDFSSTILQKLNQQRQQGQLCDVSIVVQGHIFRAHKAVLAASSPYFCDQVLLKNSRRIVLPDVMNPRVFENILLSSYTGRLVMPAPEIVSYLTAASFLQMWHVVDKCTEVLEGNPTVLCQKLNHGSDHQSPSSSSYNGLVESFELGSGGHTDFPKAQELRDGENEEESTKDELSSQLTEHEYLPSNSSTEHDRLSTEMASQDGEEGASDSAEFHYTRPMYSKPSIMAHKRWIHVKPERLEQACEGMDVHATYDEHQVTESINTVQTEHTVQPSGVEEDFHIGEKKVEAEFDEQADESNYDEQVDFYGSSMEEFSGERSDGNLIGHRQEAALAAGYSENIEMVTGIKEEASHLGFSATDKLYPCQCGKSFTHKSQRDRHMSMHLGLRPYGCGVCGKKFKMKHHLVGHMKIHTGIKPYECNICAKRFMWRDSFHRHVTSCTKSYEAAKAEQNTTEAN
Serine/threonine-protein kinase WNK1 (Homo sapiens), sequence (Q9H4A3 whole entry, looked up, the tested form may be a part): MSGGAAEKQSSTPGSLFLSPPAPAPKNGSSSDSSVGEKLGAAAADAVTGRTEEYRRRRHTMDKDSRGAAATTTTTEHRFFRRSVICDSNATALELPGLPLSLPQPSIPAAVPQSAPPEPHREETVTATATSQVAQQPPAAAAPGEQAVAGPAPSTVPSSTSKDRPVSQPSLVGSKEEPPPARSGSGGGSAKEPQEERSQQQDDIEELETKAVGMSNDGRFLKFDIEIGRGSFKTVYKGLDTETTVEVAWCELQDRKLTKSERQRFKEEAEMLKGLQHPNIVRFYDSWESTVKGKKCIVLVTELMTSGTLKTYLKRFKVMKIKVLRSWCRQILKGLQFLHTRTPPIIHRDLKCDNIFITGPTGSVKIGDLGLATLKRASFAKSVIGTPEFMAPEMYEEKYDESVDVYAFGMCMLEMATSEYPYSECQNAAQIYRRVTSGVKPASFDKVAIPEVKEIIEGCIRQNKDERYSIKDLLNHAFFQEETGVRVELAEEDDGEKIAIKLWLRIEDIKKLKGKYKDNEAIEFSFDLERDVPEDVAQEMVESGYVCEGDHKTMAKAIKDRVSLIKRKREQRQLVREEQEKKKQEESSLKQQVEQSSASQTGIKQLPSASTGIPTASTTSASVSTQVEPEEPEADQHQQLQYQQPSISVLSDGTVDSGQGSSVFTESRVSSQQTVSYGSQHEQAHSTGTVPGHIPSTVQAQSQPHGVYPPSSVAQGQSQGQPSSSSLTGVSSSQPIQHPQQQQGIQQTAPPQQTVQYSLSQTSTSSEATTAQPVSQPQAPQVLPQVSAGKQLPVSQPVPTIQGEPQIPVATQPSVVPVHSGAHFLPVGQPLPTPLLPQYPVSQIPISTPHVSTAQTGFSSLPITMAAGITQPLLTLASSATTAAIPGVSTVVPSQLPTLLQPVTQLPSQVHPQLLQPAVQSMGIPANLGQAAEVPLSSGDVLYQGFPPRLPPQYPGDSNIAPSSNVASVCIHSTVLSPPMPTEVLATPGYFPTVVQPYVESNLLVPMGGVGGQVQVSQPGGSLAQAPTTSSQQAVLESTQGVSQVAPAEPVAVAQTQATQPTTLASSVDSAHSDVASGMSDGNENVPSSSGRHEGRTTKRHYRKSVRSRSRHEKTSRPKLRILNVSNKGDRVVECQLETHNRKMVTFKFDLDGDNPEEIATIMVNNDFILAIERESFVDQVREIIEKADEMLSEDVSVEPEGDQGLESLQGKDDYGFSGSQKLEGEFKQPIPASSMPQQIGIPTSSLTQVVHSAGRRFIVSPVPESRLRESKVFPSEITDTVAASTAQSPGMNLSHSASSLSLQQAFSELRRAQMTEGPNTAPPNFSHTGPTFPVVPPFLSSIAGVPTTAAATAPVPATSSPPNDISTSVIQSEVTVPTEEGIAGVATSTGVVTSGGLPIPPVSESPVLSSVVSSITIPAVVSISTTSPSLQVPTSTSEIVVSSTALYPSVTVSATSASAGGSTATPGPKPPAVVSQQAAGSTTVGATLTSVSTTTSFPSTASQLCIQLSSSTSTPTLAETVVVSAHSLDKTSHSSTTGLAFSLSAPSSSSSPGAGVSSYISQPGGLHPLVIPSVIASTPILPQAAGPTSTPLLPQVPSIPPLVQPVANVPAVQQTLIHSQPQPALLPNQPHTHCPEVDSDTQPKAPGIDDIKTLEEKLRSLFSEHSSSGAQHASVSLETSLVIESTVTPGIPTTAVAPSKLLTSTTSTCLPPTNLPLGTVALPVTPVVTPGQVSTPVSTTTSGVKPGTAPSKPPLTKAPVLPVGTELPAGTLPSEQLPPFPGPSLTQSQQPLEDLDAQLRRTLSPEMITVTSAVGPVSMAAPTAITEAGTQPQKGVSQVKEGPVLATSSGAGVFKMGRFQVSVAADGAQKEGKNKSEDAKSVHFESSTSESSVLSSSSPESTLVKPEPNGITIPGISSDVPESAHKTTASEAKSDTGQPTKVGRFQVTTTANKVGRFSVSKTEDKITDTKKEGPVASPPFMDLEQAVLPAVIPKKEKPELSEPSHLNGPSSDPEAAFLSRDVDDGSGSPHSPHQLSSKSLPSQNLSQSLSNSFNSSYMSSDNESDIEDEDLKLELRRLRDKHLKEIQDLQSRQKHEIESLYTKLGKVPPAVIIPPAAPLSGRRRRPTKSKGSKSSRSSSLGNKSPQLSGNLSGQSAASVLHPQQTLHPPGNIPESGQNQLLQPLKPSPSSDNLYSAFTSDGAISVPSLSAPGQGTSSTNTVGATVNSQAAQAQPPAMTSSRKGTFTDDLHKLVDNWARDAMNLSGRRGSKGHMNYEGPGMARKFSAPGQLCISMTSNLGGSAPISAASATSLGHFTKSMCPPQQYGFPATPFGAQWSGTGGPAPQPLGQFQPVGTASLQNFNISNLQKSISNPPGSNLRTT
Serine/threonine-protein kinase pim-1 (Homo sapiens), sequence (P11309 whole entry, looked up): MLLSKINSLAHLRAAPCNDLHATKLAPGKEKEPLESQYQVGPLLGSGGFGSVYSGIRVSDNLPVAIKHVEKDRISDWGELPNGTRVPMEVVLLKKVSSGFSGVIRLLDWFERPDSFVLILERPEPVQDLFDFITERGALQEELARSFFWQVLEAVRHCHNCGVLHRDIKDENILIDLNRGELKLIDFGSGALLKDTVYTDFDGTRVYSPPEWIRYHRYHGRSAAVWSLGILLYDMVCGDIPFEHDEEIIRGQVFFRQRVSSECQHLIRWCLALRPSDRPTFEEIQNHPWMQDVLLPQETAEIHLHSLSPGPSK

Tm [1]: 51 °C
LogFC [2]: 0.0845
LogFC [3]: 0.0389
inhibition [4]: 86.6%
Ki ([5]; read-out: Ki): 872 nM
Ki ([5]; read-out: pKi (converted)): 851 nM
Tm [6]: 45 °C
Tm [7]: 38 °C
LogFC [8]: -0.189
Ki [9]: 1110 nM
pKi [9]: 6.01
Tm [10]: 41 °C
Tm [11]: 46 °C
Tm [12]: 53 °C
Tm [13]: 44 °C
inhibition [14]: 27.3%
Tm [15]: 47 °C
inhibition [16]: 15.2%
LogFC [17]: 0.0258
Tm [18]: 51 °C
Tm [19]: 44 °C
Structure (SMILES): C[C@@H]1CN(c2ncc(Cl)c(Nc3ccc4c(c3)n(CCC(C)(C)O)c(=O)n4C)n2)C[C@H](C)C1(F)F
